Measured values from patent publication US11576896B2, “Benzoselenophene-based compounds, pharmaceutical compositions and antibody-drug conjugates including the same” (AIMED BIO INC., priority 2020, dated 2023).
Like-named read-outs stand apart in the source and are kept apart here.

Key:
[1] = tested on: ovarian cancer cells SK-OV-3; experiment: High-throughput screening (HTS) cytotoxicity, ATPlite assay; assay type: cell-based; set-up: AUC (area under the curve): unit not given beside the values; conditions: for IC50: Homo sapiens
Experimental: (§1) The present inventors used an HTS system capable of screening various drugs or substances at once to further screen cytotoxicity of DS-26 (Example 1) and DS-28 (Comparative Example 1). Gastric cancer cells NCI-N87 and ovarian cancer cells SK-OV-3 were separately seeded in a 384-well and treated with drugs at various concentrations and cultured for 72 hours. Then, the degree of cell growth was measured by ATPlite assay. The measured data were converted into IC50 using GraphPad Prism 5.0 software, and area under the curve (AUC) was converted to analyze the titer of each drug.
(§2) Also, DS-26 has stable solubility and stability in terms of chemical structure and thus considered worthy to be developed into drugs.

[2] = tested on: Gastric cancer cells NCI-N87; experiment: as above; assay type: cell-based; set-up: AUC (area under the curve): unit not given beside the values; conditions: NCI-N87 (HER+), 384-well, 72 hours; for IC50: Homo sapiens
Experimental: as §1, §2

[3] = SK-OV-3 (HER+), 384-well, 72 hours, ATPlite, read-out: IC50
[4] = SK-OV-3 (HER+), 384-well, 72 hours, ATPlite

`COc1ccc2c(O)cc3c(c2c1)[C@H](CCl)CN3C(=O)c1cc2cc(NC(=O)CCN(C)C)ccc2[se]1` [DS-26, (S)—N-(2-(1-(chloromethyl)-5-hydroxy-8-methoxy-2,3-dihydro-1H-benzo[e]indole-3-carbonyl)benzo[b]selenophen-5-yl)-3-(dimethylamino)propanamide] was tested, and the IC50 [1, 3] was 0.042 nM, the IC50 ([1]; text summary of Table 1 and FIGS. 2A-3B, cell line not specified (NCI-N87 and SK-OV-3 tested), read-out: IC50 (text summary of HTS result)) was 0.04 to 0.05 nM and the “AUC (area under the curve)” value [1, 4] was 481. The IC50 [2] was 0.00555 nM and the “AUC (area under the curve)” value [2] was 477.

For `COCCOCCOCCOCCOc1cc2[se]c(C(=O)N3C[C@@H](CCl)c4c3cc(O)c3ccc(OC)cc43)cc2cc1NC(C)=O` [DS-28, reference compound], the IC50 [1, 3] was 1.68 nM, the “AUC (area under the curve)” value [1, 4] was 613 and the IC50 [2] was 5.86 nM. For the same molecule, the “AUC (area under the curve)” value [2] was 689.
